In the assay the test system is Radical scavenging activity. The experiment in a line: Antioxidant activity assessed as DPPH free radical scavenging activity after 30 mins by spectrophotometric assay.

SMILES strings stand for the structures.

The IC50 is the concentration at which inhibition is half-maximal. For `O=C1C[C@@H](c2ccc(O)c(O)c2)Oc2cc(O[C@@H]3O[C@H](CO)[C@@H](O)[C@H](O)[C@H]3O[C@@H]3O[C@H](CO)[C@@H](O)[C@H](O)[C@H]3O)cc(O)c21`, the IC50 turned out to be 12 µM.

With `O=c1cc(-c2ccc(O)c(O)c2)oc2cc(O[C@@H]3O[C@H](CO)[C@@H](O)[C@H](O)[C@H]3O)c(O)c(O)c12`, the IC50 was determined as 11 µM.

Take `O=C(/C=C/c1ccc(O)cc1)OC[C@H]1O[C@@H](OCCc2ccc(O)c(O)c2)[C@H](O)[C@@H](O)[C@@H]1O`: the IC50 was found to be 18 µM.

In the case of `O=c1cc(-c2ccc(O)c(O)c2)oc2cc(O[C@@H]3O[C@H](CO)[C@@H](O)[C@H](O[C@@H]4O[C@H](CO)[C@@H](O)[C@H](O)[C@H]4O)[C@H]3O)c(O)c(O)c12`, the IC50 was 8 µM.

On to `C[C@@H]1O[C@@H](O[C@@H]2[C@@H](O)[C@H](OCCc3ccc(O)c(O)c3)O[C@H](COC(=O)/C=C/c3ccc(O)c(O)c3)[C@H]2O)[C@H](O)[C@H](O)[C@H]1O` [ISOACTEOSIDE], for which the IC50 amounted to 20 µM.

Turning to `C[C@@H]1O[C@@H](O[C@@H]2[C@@H](O)[C@H](OCCc3ccc(O)c(O)c3)O[C@H](CO)[C@H]2OC(=O)/C=C/c2ccc(O)c(O)c2)[C@H](O)[C@H](O)[C@H]1O` [ACETOSIDE], the IC50 came out at 20 µM.

Consider `C[C@@H]1O[C@@H](OC[C@H]2O[C@@H](OCCc3ccc(O)c(O)c3)[C@H](O)[C@@H](O)[C@@H]2OC(=O)/C=C/c2ccc(O)c(O)c2)[C@H](O)[C@H](O)[C@H]1O` [FORSYTHIASIDE], for which the IC50 worked out at 21 µM.

On to `Cc1cc(C(C)(C)C)c(O)c(C(C)(C)C)c1` [BUTYLATED HYDROXYTOLUENE], for which the IC50 is 40 µM.

On to `O=c1cc(-c2ccc(O)c(O)c2)oc2cc(O[C@@H]3O[C@H](CO)[C@@H](O)[C@H](O)[C@H]3O[C@@H]3O[C@H](CO)[C@@H](O)[C@H](O)[C@H]3O)cc(O)c12`, for which the IC50 is 12 µM.

For the origin of these results see ChEMBL document CHEMBL1141793, “Antioxidant constituents of the aerial parts of Globularia alypum growing in Morocco” (J Nat Prod, 2005).
